Broadly, the EC50 is the concentration needed to bring the measured effect to its halfway point.

Results on eight compounds are retold here after ChEMBL document CHEMBL1147866, “Cyclic monophosphate prodrugs of base-modified 2'-C-methyl ribonucleosides as potent inhibitors of hepatitis C virus RNA replication” (Bioorg Med Chem Lett, 2007).

The test system of data set [1] is Bovine viral diarrhea virus 1. Kind of data set: Antiviral activity against Bovine viral diarrhea virus 1. The note with it: Bovine viral diarrhea virus isolates and strains. It counts as functional, organism-based.
Another data set deals with Hepatitis C virus. Briefly: Antiviral activity against hepatitis C virus replication. It counts as functional, organism-based, Hepacivirus hominis.
A short description of data set [2]: Metabolic stability in rat plasma after 1 hr. It is filed as ADME, organism-based. The note with it: read-out: Stability.
The next data set deals with Rhesus monkey. Briefly: Metabolic stability in monkey plasma after 1 hr. It is filed as ADME, Macaca mulatta.
The species named for the next data set is Homo sapiens. Kind of data set: Metabolic stability in human plasma after 1 hr. It is filed as ADME, organism-based.

As to `CN(NS(C)(=O)=O)c1nc(N)nc2c1ncn2[C@@H]1O[C@@H]2OP(=O)(OCCSC(=O)C(C)(C)C)O[C@H]2[C@@]1(C)O` (some centres undefined), the EC50 in data set [1] was determined as 33 nM; with Hepatitis C virus, 22 nM.
The like results for `CC(C)OC(=O)OCOP1(=O)O[C@H]2O[C@@H](n3cnc4c(N(C)NS(C)(=O)=O)ncnc43)[C@](C)(O)[C@@H]2O1` (some centres undefined) were, in that order, 420 nM and 463 nM.
With `CN(NS(C)(=O)=O)c1ncnc2c1ncn2[C@@H]1O[C@@H]2OP(=O)(OCCSC(=O)C(C)(C)C)O[C@H]2[C@@]1(C)O` (some centres undefined), the EC50 in data set [1] stood at 245 nM; with Hepatitis C virus, 145 nM.
Regarding `CC(C)OC(=O)OCOP1(=O)O[C@H]2O[C@@H](n3cnc4c(N(C)NS(C)(=O)=O)nc(N)nc43)[C@](C)(O)[C@@H]2O1` (some centres undefined), the EC50 was 216 nM in data set [1] and 163 nM in the data set with Hepatitis C virus.
Take `CCCOC(C)(C)C(=O)SCCOP1(=O)O[C@H]2O[C@@H](n3cnc4c(N(C)NS(C)(=O)=O)nc(N)nc43)[C@](C)(O)[C@@H]2O1` (some centres undefined): the EC50 worked out at 16 nM in data set [1] and 8 nM with Hepatitis C virus. Also, the remaining at 1 h in data set [2] is 4%. Also, the Stability result with Rhesus monkey and in the data set listed under Homo sapiens was “Stable” each time.
On to `CN(NS(C)(=O)=O)c1nc(N)nc2c1ncn2[C@@H]1O[C@@H]2OP(=O)(OCOC(=O)C(C)(C)C)O[C@H]2[C@@]1(C)O` (some centres undefined), for which the EC50 in data set [1] was 223 nM; with Hepatitis C virus it was 92 nM.
As for `CN(NS(C)(=O)=O)c1ncnc2c1ncn2[C@@H]1O[C@@H]2OP(=O)(OCOC(=O)C(C)(C)C)O[C@H]2[C@@]1(C)O` (some centres undefined), the EC50 worked out at 962 nM in data set [1] and 414 nM in the data set on Hepatitis C virus.
Turning to `CCCOCC(C)(C)C(=O)SCCOP1(=O)O[C@H]2O[C@@H](n3cnc4c(N(C)NS(C)(=O)=O)ncnc43)[C@](C)(O)[C@@H]2O1` (some centres undefined), the EC50 in data set [1] was found to be 110 nM; in the data set on Hepatitis C virus, 39 nM.
